In ChEMBL document CHEMBL4825768 (ACS Med Chem Lett, 2021) one finds IC50 and Activity data, which are given here for eleven compounds.

What is called IC50 is the concentration needed to halve the response being measured.

Test [1] concerns the target T1, GTPase KRas (Homo sapiens, UniProt P01116, G12C). As to the kind of experiment: Inhibition of GDP-bound KRAS G12C mutant (1 to 169 residues) (unknown origin) assessed as inhibition of SOS-mediated nucleotide exchange pretreated with KRAS for 20 hrs followed by incubation with SOS (564 to 1049 residues) and GTP for 30 mins and later incubated with GST-tagged cRAF (1 to 149 residues) for 10 mins by AlphaLISA assay. It counts as single protein. For orientation: Bead proximity is the source of the signal in Alpha formats.

The target in test [2] is T1, GTPase KRas. In words: Inhibition of GDP-bound KRAS G12C mutant (1 to 169 residues) (unknown origin) assessed as inhibition of SOS-mediated nucleotide exchange pretreated with KRAS for 5 mins followed by incubation with SOS (564 to 1049 residues) and GTP for 30 mins and later incubated with GST-tagged cRAF (1 to 149 residues) for 10 mins by AlphaLISA assay. It counts as single protein.

Test [3] relates to GTPase KRas (Homo sapiens), P01116 [G12D]. As to the kind of experiment: Binding affinity to GDP-bound KRAS G12D mutant (unknown origin) assessed as bound fraction at 100 uM incubated for 20 hrs by RF-MS analysis relative to control.
Test [4] addresses T1, GTPase KRas. As to the kind of experiment: Inhibition of KRAS G12C mutant in human MIA PaCa-2 cells assessed as reduction in phosphorylated ERK1/2 level incubated for 2 hrs by MSD assay. Format: cell-based.

As for `Cc1ccnc(C(C)C)c1-n1c(=O)nc(N2CC(NC(=O)C3CO3)C2)c2cc(Cl)c(-c3ccccc3F)nc21` (centres undefined), the values for the IC50 at GTPase KRas [1] and on GTPase KRas [2] were 0.018 µM and 4.41 µM, respectively.

In the case of `Cc1ccnc(C(C)C)c1-n1c(=O)nc(N2CCN(C(=O)C3OC3C)C[C@@H]2C)c2cc(Cl)c(-c3ccccc3F)nc21` (some centres undefined), the concentration for half-maximal inhibition (IC50) was 0.096 µM on GTPase KRas [1] and 17.8 µM at GTPase KRas [2].

Regarding `Cc1ccnc(C(C)C)c1-n1c(=O)nc(N2C[C@@H](C)N(C(=O)[C@H]3CO3)C[C@@H]2C)c2cc(Cl)c(-c3c(N)cccc3F)nc21`, the figures for the concentration for half-maximal inhibition (IC50) on GTPase KRas [1] and at GTPase KRas [2] were 0.015 µM and 0.56 µM, respectively. Further, the Activity in test [3] stood at 15.8%.

For `Cc1ccnc(C(C)C)c1-n1c(=O)nc(N2C[C@@H](C)N(C(=O)[C@H]3CO3)C[C@@H]2C)c2cc(Cl)c(-c3c(O)cccc3F)nc21`, the IC50 at GTPase KRas [1] worked out at 0.024 µM; on GTPase KRas [2], 0.653 µM. Besides, the Activity in test [3] was found to be 8.1%.

In the case of `Cc1ccnc(C(C)C)c1-n1c(=O)nc(N2CCN(C(=O)[C@@H]3O[C@H]3CO)C[C@@H]2C)c2cc(Cl)c(-c3ccccc3F)nc21`, the IC50 at GTPase KRas [1] came out at 0.064 µM; at GTPase KRas [2], 6.26 µM.

Take `COC(=O)/C=C/C(=O)N1CCN(c2nc(=O)n(-c3c(C)ccnc3C(C)C)c3nc(-c4ccccc4F)c(Cl)cc23)[C@@H](C)C1`: the half-maximal inhibitory concentration (IC50) at GTPase KRas [4] amounted to 0.061 µM; on GTPase KRas [1] it was 0.026 µM; at GTPase KRas [2], 0.095 µM.

For the compound `Cc1ccnc(C(C)C)c1-n1c(=O)nc(N(C)C2CN(C(=O)C3CO3)C2)c2cc(Cl)c(-c3ccccc3F)nc21` (centres undefined), the IC50 on GTPase KRas [1] was determined as 0.227 µM; on GTPase KRas [2], 13.8 µM.

As to `Cc1ccnc(C(C)C)c1-n1c(=O)nc(N2CCN(C(=O)[C@@H]3O[C@H]3CN3CCCCC3)C[C@@H]2C)c2cc(Cl)c(-c3ccccc3F)nc21`, the results for the 50% inhibitory concentration (IC50) at GTPase KRas [1] and on GTPase KRas [2] were 0.005 µM and 1.12 µM, respectively.

For `CCOC(=O)[C@@H]1O[C@H]1C(=O)N1CCN(c2nc(=O)n(-c3c(C)ccnc3C(C)C)c3nc(-c4ccccc4F)c(Cl)cc23)[C@@H](C)C1`, the 50% inhibitory concentration (IC50) at GTPase KRas [4] stood at 0.096 µM; on GTPase KRas [1], 0.005 µM; on GTPase KRas [2], 0.216 µM. Further, the Activity in test [3] worked out at 3.4%.

Regarding `Cc1ccnc(C(C)C)c1-n1c(=O)nc(N2CCN(C(=O)[C@H]3CO3)C[C@@H]2C)c2cc(Cl)c(-c3ccccc3F)nc21`, the IC50 amounted to 0.027 µM on GTPase KRas [1] and 3.78 µM on GTPase KRas [2]. Besides, the Activity in test [3] came out at 3.4%.

In the case of `Cc1ccnc(C(C)C)c1-n1c(=O)nc(N2CCN(C(=O)C=O)C[C@@H]2C)c2cc(Cl)c(-c3ccccc3F)nc21`, the IC50 at GTPase KRas [4] worked out at 0.711 µM; at GTPase KRas [1] it was 0.039 µM; at GTPase KRas [2], 0.61 µM.
